Source: patent US20250179103A1, “6-OXODECAHYDROPYRROLO[1,2-A][1,5]DIAZOCINE AND 6-OXODECAHYDRO-4H-PYRROLO[2,1-D][1,5]THIAZOCINE DERIVATIVES AS STAT3 AND STAT6 MODULATORS FOR THE TREATMENT OF CANCER AND INFLAMMATORY CONDITIONS” (Recludix Pharma, Inc., priority 2022, published 2025)

Key:
[1] = molecular target: T1, Recombinant STAT6 protein (STAT6(W123-T658)) (Homo sapiens, UniProt P42226); assay: STAT6 Fluorescence Polarization (FP) Assay; type: binding; conditions: STAT6(W123-T658) 250 nM, probe 5-FAM-ApYKPFQDLI-NH2 2 nM, 45-minute incubation
T1 construct: Recombinant STAT6 protein (STAT6(W123-T658))
T1 sequence (P42226 123-658): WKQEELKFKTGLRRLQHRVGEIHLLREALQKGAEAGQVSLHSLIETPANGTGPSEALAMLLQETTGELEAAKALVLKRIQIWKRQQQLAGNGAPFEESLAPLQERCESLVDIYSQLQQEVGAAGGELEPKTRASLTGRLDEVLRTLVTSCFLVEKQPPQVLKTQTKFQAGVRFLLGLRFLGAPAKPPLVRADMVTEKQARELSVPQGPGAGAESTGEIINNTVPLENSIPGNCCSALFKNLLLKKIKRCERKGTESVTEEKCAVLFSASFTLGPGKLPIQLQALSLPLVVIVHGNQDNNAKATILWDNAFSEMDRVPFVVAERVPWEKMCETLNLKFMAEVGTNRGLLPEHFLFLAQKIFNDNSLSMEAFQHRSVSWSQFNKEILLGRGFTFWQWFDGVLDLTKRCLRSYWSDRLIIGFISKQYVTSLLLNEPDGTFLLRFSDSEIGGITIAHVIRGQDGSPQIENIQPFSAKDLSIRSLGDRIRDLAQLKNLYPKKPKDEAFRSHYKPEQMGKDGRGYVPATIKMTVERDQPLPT
Summary of the method: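 Displacement of a fluorescent phosphotyrosine peptide (5-FAM-ApYKPFQDLI-NH2, 2 nM) from STAT6(W123-T658) (250 nM), 1% DMSO, pH 7.4 HEPES buffer. After 45 min at room temperature, polarization (mP) was plotted versus log compound concentration and fitted by nonlinear regression to give IC50.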

[2] = molecular target: T2, Recombinant STAT3 protein (STAT3(G127-I722)) (Homo sapiens, UniProt P40763); assay: STAT3 Fluorescence Polarization (FP) Assay; type: binding; conditions: STAT3(G127-I722) 25 nM, probe 5-FAM-GpYLPQTV-NH2 2 nM, 45-minute incubation
T2 construct: Recombinant STAT3 protein (STAT3(G127-I722))
T2 sequence (P40763 127-722): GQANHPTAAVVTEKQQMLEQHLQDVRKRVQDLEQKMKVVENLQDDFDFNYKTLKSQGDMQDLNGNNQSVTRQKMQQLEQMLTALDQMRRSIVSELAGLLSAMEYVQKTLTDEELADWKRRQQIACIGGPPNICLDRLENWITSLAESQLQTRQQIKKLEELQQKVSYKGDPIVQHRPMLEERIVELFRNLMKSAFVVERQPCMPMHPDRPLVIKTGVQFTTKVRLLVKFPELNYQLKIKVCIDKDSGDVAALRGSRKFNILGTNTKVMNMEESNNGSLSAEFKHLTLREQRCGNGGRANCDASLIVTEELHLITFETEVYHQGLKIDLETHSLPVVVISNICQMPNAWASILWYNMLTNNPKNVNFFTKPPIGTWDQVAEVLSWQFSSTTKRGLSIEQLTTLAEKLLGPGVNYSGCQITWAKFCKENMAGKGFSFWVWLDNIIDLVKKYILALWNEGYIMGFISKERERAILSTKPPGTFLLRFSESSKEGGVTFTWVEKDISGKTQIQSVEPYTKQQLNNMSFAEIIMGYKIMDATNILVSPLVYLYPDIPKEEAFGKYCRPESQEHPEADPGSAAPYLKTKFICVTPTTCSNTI
Summary of the method: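 STAT3(G127-I722), 25 nM, was mixed with 2 nM 5-FAM-GpYLPQTV-NH2 probe in HEPES pH 7.4 buffer with 1% DMSO and serially diluted compound. FP (mP) was read after 45 min at room temperature. IC50 came from nonlinear regression.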

IC50 [1] | IC50 [2] | SMILES
0.3 to 3 µM | > 10000 nM | Cc1cc(Cl)cc(C(=O)N2CC[C@H](NC(=O)c3ccc4ccc(C(F)P(=O)(O)O)cc4c3)C(=O)N3[C@H](CC[C@H]3C(=O)N3CCOCC3)C2)c1 (stereo partly drawn) [Compound 389, ((7-(((5S,8S,10aR)-2-(3-chloro-5-methyl-benzoyl)-8-(morpholine-4-carbonyl)-6-oxodecahydropyrrolo [1,2-a][1,4]diazocin-5-yl)carbamoyl)naphthalen-2-yl)fluoromethyl) phosphonic acid]
≤ 0.3 µM | 1000 to 10000 nM | Cc1ccc2onc(C(=O)N3CC[C@H]4CC[C@@H](C(=O)N5C[C@H](c6ccn(C)c(=O)c6)CC56CC6)N4C(=O)[C@@H](NC(=O)c4ccc5ccc([C@H](F)P(=O)(O)O)cc5c4)C3)c2c1 [Compound 390, ((R)-fluoro(7-(((5S, 8S,10aR)-8-((S)-6-(1-methyl-2-oxo-1,2-dihydropyridin-4-yl)-4-azaspiro[2.4]heptane-4-carbonyl)-3-(5-methylbenzo[d]isoxazole-3-carbonyl)-6-oxodecahydropyrrolo [1,2-a][1,5]diazocin-5-yl)carbamoyl)naphthalen-2-yl)methyl)phosphonic acid]
≤ 0.3 µM | > 10000 nM | Cc1ccc2onc(C(=O)N3CC[C@H]4CC[C@@H](C(=O)N5C[C@H](c6ccn(C)c(=O)c6)CC56CC6)N4C(=O)[C@@H](NC(=O)c4ccc5ccc([C@@H](F)P(=O)(O)O)cc5c4)C3)c2c1 [Compound 391, ((S)-fluoro(7-(((5S, 8S,10aR)-8-((S)-6-(1-methyl-2-oxo-1,2-dihydropyridin-4-yl)-4-azaspiro[2.4]heptane-4-carbonyl)-3-(5-methylbenzo[d]isoxazole-3-carbonyl)-6-oxodecahydropyrrolo [1,2-a][1,5]diazocin-5-yl)carbamoyl)naphthalen-2-yl)methyl) phosphonic acid]
3 to 30 µM | 1000 to 10000 nM | O=C(N[C@H]1CN(c2cc3ccccc3cn2)CC[C@H]2CC[C@@H](C(=O)N3CCOCC3)N2C1=O)c1ccc2ccc(C(F)P(=O)(O)O)cc2c1 (stereo partly drawn) [Compound 392, (fluoro(7-(((5S,8S, 10aR)-3-(isoquinolin-3-yl)-8-(morpholine-4-carbonyl)-6-oxodecahydropyrrolo [1,2-a][1,5]diazocin-5-yl)carbamoyl)naphthalen-2-yl)methyl)phosphonic acid]
> 30 µM | > 10000 nM | O=C(N[C@H]1CN(c2ccccn2)C[C@H]2CC[C@@H](C(=O)N3CCOCC3)N2C1=O)c1ccc2ccc(C(F)P(=O)(O)O)cc2c1 (stereo partly drawn) [Compound 393, (fluoro(7-(((4S,7S,9aR)-7-(morpholine-4-carbonyl)-5-oxo-2-(pyridin-2-yl)octahydro-1H-pyrrolo[1,2-a][1,4]diazepin-4-yl)carbamoyl)naphthalen-2-yl)methyl) phosphonic acid]
3 to 30 µM | > 10000 nM | Cc1ccc2onc(C(=O)N3CC[C@H]4CC[C@@H](C(=O)N5CCOCC5)N4C(=O)[C@@H](NC(=O)c4ccc5cnc(CP(=O)(O)O)cc5c4)C3)c2c1 [Compound 394, ((6-(((5S,8S,10aR)-3-(5-methylbenzo [d]isoxazole-3-carbonyl)-8-(morpholine-4-carbonyl)-6-oxodecahydropyrrolo [1,2-a][1,5]diazocin-5-yl)carbamoyl)isoquinolin-3-yl)methyl) phosphonic acid]
≤ 0.3 µM | 1000 to 10000 nM | N#C[C@@H]1CN(C(=O)[C@@H]2CC[C@@H]3CCN(CC(F)F)C[C@H](NC(=O)c4cc5cc(C(F)P(=O)(O)O)ccc5s4)C(=O)N32)C[C@H]1c1ccccc1 (stereo partly drawn) [Compound 395, ((2-(((5S,8S,10aR)-8-((3S,4R)-3-cyano-4-phenyl-pyrrolidine-1-carbonyl)-3-(2,2-difluoroethyl)-6-oxodecahydropyrrolo [1,2-a][1,5]diazocin-5-yl)carbamoyl)benzo[b]thiophen-5-yl)fluoromethyl) phosphonic acid]
3 to 30 µM | > 10000 nM | Cc1ccc2onc(C(=O)N3CC[C@H]4CC[C@@H](C(=O)N5CCOCC5)N4C(=O)[C@@H](NC(=O)c4ccc5ccc(CP(=O)(O)O)nc5c4)C3)c2c1 [Compound 396, ((7-(((5S,8S,10aR)-3-(5-methylbenzo[d]isoxazole-3-carbonyl)-8-(morpholine-4-carbonyl)-6-oxodecahydropyrrolo [1,2-a][1,5]diazocin-5-yl)carbamoyl)quinolin-2-yl)methyl)phosphonic acid]
≤ 0.3 µM | > 10000 nM | Cc1ccc2onc(C(=O)N3CC[C@H]4CC[C@@H](C(=O)N5C[C@@H](C)O[C@@H](C)C5)N4C(=O)[C@@H](NC(=O)c4ccc5ccc(C(F)P(=O)(O)O)cc5c4)C3)c2c1 (stereo partly drawn) [Compound 397, ((7-(((5S,8S,10aR)-8-((2S,6R)-2,6-dimethylmorpholine-4-carbonyl)-3-(5-methylbenzo[d]isoxazole-3-carbonyl)-6-oxodecahydropyrrolo [1,2-a][1,5]diazocin-5-yl)carbamoyl)naphthalen-2-yl)fluoromethyl)phosphonic acid]
3 to 30 µM | ≤ 100 nM | N#Cc1cccc(C2CN(C(=O)[C@@H]3CC[C@@H]4CCN(Cc5ncccn5)C[C@H](NC(=O)c5cc6cc(C(F)P(=O)(O)O)ccc6s5)C(=O)N43)C2)n1 (stereo partly drawn) [Compound 398, ((2-(((5S,8S,10aR)-8-(3-(6-cyanopyridin-2-yl)azetidine-1-carbonyl)-6-oxo-3-(pyrimidin-2-ylmethyl)decahydropyrrolo[1,2-a][1,5]diazocin-5-yl)carbamoyl)benzo[b]thiophen-5-yl)fluoromethyl)phosphonic acid]
> 30 µM | 100 to 1000 nM | N#Cc1cccc(C2CN(C(=O)[C@@H]3CC[C@@H]4CCN(Cc5ncccn5)C[C@H](NC(=O)c5cc6cc(CP(=O)(O)O)ccc6s5)C(=O)N43)C2)n1 [Compound 399, ((2-(((5S,8S,10aR)-8-(3-(6-cyanopyridin-2-yl)azetidine-1-carbonyl)-6-oxo-3-(pyrimidin-2-ylmethyl)decahydro-pyrrolo[1,2-a][1,5]diazocin-5-yl)carbamoyl)benzo[b]thiophen-5-yl)methyl) phosphonic acid]
3 to 30 µM | 100 to 1000 nM | CC(=O)N1C[C@H](NC(=O)[C@@H]2CC[C@@H]3CCN(Cc4ncccn4)C[C@H](NC(=O)c4cc5cc(C(F)P(=O)(O)O)ccc5s4)C(=O)N32)[C@@H](F)C1 (stereo partly drawn) [Compound 400, ((2-(((5S,8S,10aR)-8-(((3S,4S)-1-acetyl-4-fluoropyrrolidin-3-yl)carbamoyl)-6-oxo-3-(pyrimidin-2-ylmethyl)decahydropyrrolo[1,2-a][1,5]diazocin-5-yl)carbamoyl)benzo[b]thiophen-5-yl)fluoromethyl)phosphonic acid]
3 to 30 µM | ≤ 100 nM | O=C(N[C@H]1CN(Cc2ccccc2-n2cncn2)CC[C@H]2CC[C@@H](C(=O)N3CC(c4cccnc4)C3)N2C1=O)c1cc2cc(C(F)(F)P(=O)(O)O)ccc2s1 [Compound 402, ((2-(((5S,8S,10aR)-3-(2-(1H-1,2,4-triazol-1-yl)benzyl)-6-oxo-8-(3-(pyridin-3-yl)azetidine-1-carbonyl)decahydro-pyrrolo[1,2-a][1,5]diazocin-5-yl)carbamoyl)benzo[b]thiophen-5-yl)difluoromethyl) phosphonic acid]
3 to 30 µM | ≤ 100 nM | CN1CCN(c2ccc(C(=O)N3CC[C@H]4CC[C@@H](C(=O)N5CC(c6cccnc6)C5)N4C(=O)[C@@H](NC(=O)c4cc5cc(C(F)(F)P(=O)(O)O)ccc5s4)C3)c(Cl)c2)CC1 [Compound 403, ((2-(((5S,8S,10aR)-3-(2-chloro-4-(4-methylpiperazin-1-yl)benzoyl)-6-oxo-8-(3-(pyridin-3-yl)azetidine-1-carbonyl)decahydropyrrolo[1,2-a][1,5]diazocin-5-yl)carbamoyl)benzo[b]thiophen-5-yl)difluoromethyl) phophonic acid]

SMILES | IC50 [1] | IC50 [2]
O=C(N[C@H]1CN(C(=O)NCC23CCN(CC2)CC3)CC[C@H]2CC[C@@H](C(=O)N3CC(c4cccnc4)C3)N2C1=O)c1cc2cc(C(F)(F)P(=O)(O)O)ccc2s1 [Compound 401, (difluoro(2-(((5S,8S, 10aR)-6-oxo-8-(3-(pyridin-3-yl)azetidine-1-carbonyl)-3-((quinuclidin-4-ylmethyl)carbamoyl)decahydropyrrolo [1,2-a][1,5]diazocin-5-yl)carbamoyl)benzo[b]thiophen-5-yl)methyl) phosphonic acid] | 3 to 30 µM | ≤ 100 nM
